From patent US9738669B2, “Pentaaza macrocyclic ring complexes possessing oral bioavailability” (Galera Labs, LLC, priority 2015, dated 2017) come the findings set out here.

This data set in a line: Intraduodenal (id) bioavailability screen in minipigs, plasma level of parent Mn complex by HPLC/MS/MS. It is filed as in vivo, Gottingen minipig. To be noted: for Mini-Pig BioA: id 10 mg/kg, vs 1 mg/kg iv parent chloro complex, AUC0→24 h. As for the experimental part: Compounds were screened for oral bioavailability by injecting the formulated prodrugs directly into the duodenum (intraduodenal or id administration) of the minipig test subjects, thus bypassing the acidic environment of the stomach and thereby eliminating potentially misleading oral bioavailability results that could arise from alteration of the test article drug in the acid environment of the stomach.
The studies were conducted at Xenometrics LLC (Stillwell, Kans.) and the id bioavailability was determined using various axial ligand derivative complexes of GC4419, GC4444, GC4403 and GC4401.
Male Gottingen minipigs (4-5 mo old, 9-12 kg weight) were purchased from Marshall BioResources and housed at Xenometrics. […] The distal end was exteriorized with a reusable accessible hub (see surgical details below). During a recovery period of at least 2 weeks the minipigs were handled daily to acclimate them to the test procedures, i.e., id dosing and blood collections. For each experiment, each minipig received a test article drug dissolved or suspended in an excipient vehicle. […] All dosing experiments were conducted in fasted animals. Food was withdrawn from the minipigs 16 hours before dosing. The minipigs had ad libitum access to water. Dosed minipigs were allowed access to food 6 hour after dosing. The test article was administered at a dose of 10 mg/kg parent drug in 0.1 mL/kg vehicle (e.g., 1.5 mL in 15 kg minipig) as a bolus injection (˜1 minute) via the id cannula. The actual amount of total test article drug administered varied with the formula weight of the prodrug. An equal volume of excipient vehicle was used to flush the cannula after the test article was administered. Approximately 6 hours later, corn oil was used to flush the cannula. After approximately 24 hours post-dose, the catheter was flushed with sterile saline solution and capped. At the following time-points 0.25, 0.5, 1, 2, 4, 8, 24 and 48 hour post-injection, 2 mL blood samples were collected by cranial vena cava puncture (4 mL Sodium heparin Vacutainer, 20 g 1.5″ needle) after the skin surface was wiped with ethanol. The minipig was placed in a sling in a recumbent position without anesthesia for the collection of blood samples. The minipigs were never used more than once per 7 days for experimentation. The blood samples were kept on ice until processed for plasma. Blood samples were centrifuged at 1200×g for ten minutes at 4° C. and plasma samples were transferred to 96 well plate tubes, capped and stored at −20° C. until shipment on dry ice to the analytical laboratory used for measuring the concentration of drug in the plasma. The concentration of the parent manganese pentaaza macrocylic ring complex (independent of the composition of the axial ligands) was measured in plasma using a validated HPLC/MS/MS method that is linear between 50 ng/mL and 20,000 ng/mL.
The oils used for preparing the dosing solutions were used as supplied from commercial sources. The Capmul MCM (NF) is a mixture of mono/diglycerides of caprylic/capric acids and was supplied by ABITEC Corporation, Janesville, Wis. The Miglyol 812 N is a mixture of caprylic/capric acid triglycerides and was supplied by Cremer Oleo Division, Eatontown, N.J. Labrafil M 2125 CS (NF) is chemically defined to be linoleoyl polyoxyl-6 glycerides NF and was supplied by Gattefosse, SAINT-PRIEST Cedex, France. Peceol is chemically defined to be the monoglyceride, glyceryl monooleate NF, and was supplied by Gattefosse, SAINT-PRIEST Cedex, France. Maisine 35-1 is chemically defined to be the monoglyceride glyceryl monolinoleate (NF) and was supplied by Gattefosse, SAINT-PRIEST Cedex, France. Labrasol (NF) is chemically defined to be caprylocaproyl polyoxyl-8 glycerides NF and was supplied by Gattefosse, SAINT-PRIEST Cedex, France. Labrafil M 1944 CS is chemically defined to be oleoyl polyoxyl-6 glycerides (NF), and is available from Gattefosse, SAINT-PRIEST Cedex, France. […]

Setting [1] is: base oil Capmul MCM, 10% by weight.
Setting [2] is: base oil Maisine 35-1, 10% by weight.
[3] abbreviates: base oil Labrafil M2125 CS, 10% by weight.

As for “Manganese(II)bis-Benzoato[(4aS,13aS,17aS,21aS)-1,2,3,4,4a,5,6,12,13,13a,14,15,16,17,17a,18,19,20,21,21a-Eicosahydro-11,7-nitrilo-7H-dibenzo[b,h][1,4,7,10]tetraazacycloheptadecine-κN5,κN13,κN18,κN21,κN22]- [GC4712]”, the “Mini-Pig BioA” value is reported as 24% under setting [1]; 18% under setting [2]; 29% (base oil Peceol, 10% by weight).
Turning to “Manganese(II)bis-L-Lactato[(4aS,13aS,17aS,21aS)-1,2,3,4,4a,5,6,12,13,13a,14,15,16,17,17a,18,19,20,21,21a-Eicosahydro-11,7-nitrilo-7H-dibenzo[b,h][1,4,7,10]tetraazacycloheptadecine-κN5,κN13,κN18,κN21,κN22]- [GC4714]”, under setting [1], the “Mini-Pig BioA” value is listed as 36%.
Same read-out and setting: to “Manganese(II)bis-L-phenylalaninato[(4aS,13aS,17aS,21aS)-1,2,3,4,4a,5,6,12,13,13a,14,15,16,17,17a,18,19,20,21,21a-Eicosahydro-11,7-nitrilo-7H-dibenzo[b,h][1,4,7,10]tetraazacyclo-heptadecine-κN5,κN13,κN18,κN21,κN22]- [GC4704]” belongs 10%.
On to “Manganese(II)bis-L-phenylglycinato[(4aS,13aS,17aS,21aS)-1,2,3,4,4a,5,6,12,13,13a, 14,15,16,17,17a,18,19,20,21,21a-Eicosahydro-11,7-nitrilo-7H-dibenzo[b,h][1,4,7,10]tetraazacyclo-heptadecine-κN5,κN13,κN18,κN21,κN22]- [GC4702]”, for which the “Mini-Pig BioA” value runs as follows: under setting [1], 43%; under setting [3], 25%; (base oil Miglyol 812N, 10% by weight) 42%; (base oil Peceol, 10% by weight) 29%. Further, the “oral bioavailability / absorption, comparison in words” value (minipig id dosing, oil formulations, comparison between axial ligands) is “much better absorbed”.
“Manganese(II)bis-L-valinato[(4aS,13aS,17aS,21aS)-1,2,3,4,4a,5,6,12,13,13a,14,15,16,17,17a,18,19,20,21,21a-Eicosahydro-11,7-nitrilo-7H-dibenzo[b,h][1,4,7,10]tetraazacyclo-heptadecine-κN5,κN13,κN18,κN21,κN22]- [GC4746]”: under setting [1], the “Mini-Pig BioA” value stood at 13%.
For “Manganese(II)bis-acetato[(4aS,13aS,17aS,21aS)-1,2,3,4,4a,5,6,12,13,13a,14,15,16,17,17a,18,19,20,21,21a-Eicosahydro-11,7-nitrilo-7H-dibenzo[b,h][1,4,7,10]tetraazacycloheptadecine-κN5,κN13,κN18,κN21,κN22]- [GC4701]”, the “Mini-Pig BioA” value is, setting by setting: under setting [1], 15%; under setting [3], 16%; under setting [2], 8%; (base oil Peceol, 10% by weight) 11%.
On to “Manganese(II)bis-cyclohexanebutyrato[(4aS,13aS,17aS,21aS)-1,2,3,4,4a,5,6,12,13,13a, 14,15,16,17,17a,18,19,20,21,21a-Eicosahydro-11,7-nitrilo-7H-dibenzo[b,h][1,4,7,10]tetraazacyclo-heptadecine-κN5,κN13,κN18,κN21,κN22]- [GC4707]”, for which the “Mini-Pig BioA” value under setting [1] is reported as 9%.
On to “Manganese(II)bis-dodecanoato[(4aS,13aS,17aS,21aS)-1,2,3,4,4a,5,6,12,13,13a,14,15,16,17,17a,18,19,20,21,21a-Eicosahydro-11,7-nitrilo-7H-dibenzo[b,h][1,4,7,10]tetraazacycloheptadecine-κN5,κN13,κN18,κN21,κN22]- [GC4708]”, for which the “Mini-Pig BioA” value under setting [1] amounted to 12%.
With “Manganese(II)bis-n-Butyrato[(4aS,13aS,17aS,21aS)-1,2,3,4,4a,5,6,12,13,13a,14,15,16,17,17a,18,19,20,21,21a-Eicosahydro-11,7-nitrilo-7H-dibenzo[b,h][1,4,7,10]tetraazacycloheptadecine-κN5,κN13,κN18,κN21,κN22]- [GC4713]”, the “Mini-Pig BioA” value was found to be 21% under setting [3] and 18% (base oil Peceol, 10% by weight).
With “Manganese(II)bis-octanoato[(4aS,13aS,17aS,21aS)-1,2,3,4,4a,5,6,12,13,13a,14,15,16,17,17a,18,19,20,21,21a-Eicosahydro-11,7-nitrilo-7H-dibenzo[b,h][1,4,7,10]tetraazacycloheptadecine-κN5,κN13,κN18,κN21,κN22]- [GC4710]”, the “Mini-Pig BioA” value runs as follows: under setting [1], 13%; under setting [3], 21%; under setting [2], 8%.
For the substance “Manganese(II)bis-phenylacetato[(4aS,13aS,17aS,21aS)-1,2,3,4,4a,5,6,12,13,13a,14,15,16,17,17a,18,19,20,21,21a-Eicosahydro-11,7-nitrilo-7H-dibenzo[b,h][1,4,7,10]tetraazacyclo-heptadecine-κN5,κN13,κN18,κN21,κN22]- [GC4718]”, the “Mini-Pig BioA” value under setting [1] was 32% and the “Mini-Pig BioA” value under setting [2] came to 28%.
With “Manganese(II)bis-phenylglyoxaloto[(4aS,13aS,17aS,21aS)-1,2,3,4,4a,5,6,12,13,13a,14,15,16,17,17a,18,19,20,21,21a-Eicosahydro-11,7-nitrilo-7H-dibenzo[b,h][1,4,7,10]tetraazacyclohepta-decine-κN5,κN13,κN18,κN21,κN22]- [GC4719]”, the “Mini-Pig BioA” value is recorded as 25% under setting [1]; 31% under setting [2]; 28% (base oil Peceol, 10% by weight).
On to “Manganese(II)bis-pivaloato[(4aS,13aS,17aS,21aS)-1,2,3,4,4a,5,6,12,13,13a,14,15,16,17,17a,18,19,20,21,21a-Eicosahydro-11,7-nitrilo-7H-dibenzo[b,h][1,4,7,10]tetraazacycloheptadecine-κN5,κN13,κN18,κN21,κN22]- [GC4709]”, for which the “Mini-Pig BioA” value runs as follows: under setting [1], 17%; under setting [3], 22%.
Turning to “Manganese(II)bis-propionato[6R-Methyl(4aR,13aR,17aR,21aR)-1,2,3,4,4a,5,6,12,13,13a,14,15,16,17,17a,18,19,20,21,21a-Eicosahydro-11,7-nitrilo-7H-dibenzo[b,h][1,4,7,10]tetraazacycloheptadecine-κN5,κN13,κN18,κN21,κN22]- [GC4747]”, the “Mini-Pig BioA” value under setting [3] worked out at 20%.
Regarding “Manganese(II)bis-propionato[(4aR,13aR,17aR,21aR)-1,2,3,4,4a,5,6,12,13,13a,14,15,16,17,17a,18,19,20,21,21a-Eicosahydro-11,7-nitrilo-7H-dibenzo[b,h][1,4,7,10]tetraazacycloheptadecine-κN5,κN13,κN18,κN21,κN22]- [GC4748]”, under setting [3], the “Mini-Pig BioA” value is 22%.
For “Manganese(II)bis-propionato[(4aS,13aS,17aS,21aS)-1,2,3,4,4a,5,6,12,13,13a,14,15,16,17,17a,18,19,20,21,21a-Eicosahydro-11,7-nitrilo-7H-dibenzo[b,h][1,4,7,10]tetraaza-cycloheptadecine-κN5,κN13,κN18,κN21,κN22]- [GC4711]”, the “Mini-Pig BioA” value was 27% under setting [1]; 23% (base oil Labrafil M1944 CS, 10% by weight); 44% under setting [3]; 29% under setting [2]; 29% (base oil Peceol, 10% by weight).
Turning to “Manganese(II)bis-rac-Mandelato[(4aS,13aS,17aS,21aS)-1,2,3,4,4a,5,6,12,13,13a,14,15,16,17,17a,18,19,20,21,21a-Eicosahydro-11,7-nitrilo-7H-dibenzo[b,h][1,4,7,10]tetraazacycloheptadecine-κN5,κN13,κN18,κN21,κN22]- [GC4706]”, the “Mini-Pig BioA” value under setting [1] is recorded as 28%.
